In ChEMBL document CHEMBL1159123, “Molecular design of N-linked tetravalent glycosides bearing N-acetylglucosamine, N,N'-diacetylchitobiose and N-acetyllactosamine: Analysis of cross-linking activities with WGA and ECA lectins” (Bioorg Med Chem, 2010) one finds Activity and IC50 data, which are given here for nine compounds.

Activity calls are given as the source filed them. No cut-off for these calls is given here.

Assay [1] has as its system Triticum aestivum. As to the kind of experiment: Binding affinity to wheat-germ agglutinin assessed as increase in response units by surface plasmon resonance. Background: SPR reads the build-up and loss of mass on a sensor chip optically.
Assay [2] relates to Erythrina variegata. Nature of the assay: Binding affinity to Erythrina variegata agglutinin assessed as precipitation by UV detection based precipitation analysis.
Assay [3] is described as follows: Inhibition of wheat-germ agglutinin-mediated hemagglutinination of rabbit erythrocytes. Also on record: species or system Triticum aestivum.
For assay [4], the system named is Triticum aestivum. As to the kind of experiment: Binding affinity to wheat-germ agglutinin assessed as precipiting bands by double diffusion test.
Assay [5] can be described thus: Inhibition of Erythrina variegata agglutinin-mediated hemagglutinination of rabbit erythrocytes.
The test system of assay [6] is Erythrina variegata. Nature of the assay: Binding affinity to Erythrina variegata agglutinin assessed as precipiting bands by double diffusion test.
The test system of assay [7] is Triticum aestivum. As to the kind of experiment: Binding affinity to wheat-germ agglutinin assessed as precipitation by UV detection based precipitation analysis.

A word on the IC50: it is the concentration needed to halve the response being measured. Read a low IC50 as inhibition by little substance. As to `CC(=O)N[C@@H]1[C@@H](O)[C@H](O[C@@H]2O[C@H](CO)[C@@H](O)[C@H](O)[C@H]2NC(C)=O)[C@@H](CO)O[C@H]1NC(=O)CCCCCNC(=O)CN(CCOCCOCCN(CC(=O)NCCCCCC(=O)N[C@@H]1O[C@H](CO)[C@@H](O[C@@H]2O[C@H](CO)[C@@H](O)[C@H](O)[C@H]2NC(C)=O)[C@H](O)[C@H]1NC(C)=O)CC(=O)NCCCCCC(=O)N[C@@H]1O[C@H](CO)[C@@H](O[C@@H]2O[C@H](CO)[C@@H](O)[C@H](O)[C@H]2NC(C)=O)[C@H](O)[C@H]1NC(C)=O)CC(=O)NCCCCCC(=O)N[C@@H]1O[C@H](CO)[C@@H](O[C@@H]2O[C@H](CO)[C@@H](O)[C@H](O)[C@H]2NC(C)=O)[C@H](O)[C@H]1NC(C)=O`, in the assay on Triticum aestivum [1], the Activity entry is “Dose-dependent effect”. Besides, in the assay with Erythrina variegata [2], the outcome was inactive. This compound had an IC50 in assay [3] of 0.18 µM. Further, the outcome with Triticum aestivum [4] was Active.

`CC(=O)N[C@@H]1[C@@H](O)[C@H](O)[C@@H](CO)O[C@H]1NC(=O)CN(CCOCCOCCN(CC(=O)N[C@@H]1O[C@H](CO)[C@@H](O)[C@H](O)[C@H]1NC(C)=O)CC(=O)N[C@@H]1O[C@H](CO)[C@@H](O)[C@H](O)[C@H]1NC(C)=O)CC(=O)N[C@@H]1O[C@H](CO)[C@@H](O)[C@H](O)[C@H]1NC(C)=O`: the Activity entry in the assay on Triticum aestivum [1] was “Dose-dependent effect”. Further, the result in the assay on Erythrina variegata [2] and in the assay on Triticum aestivum [4] was inactive. This compound showed an IC50 in assay [3] above 4000 µM.

Consider `CC(=O)N[C@H]1[C@H](O[C@H]2[C@H](O)[C@@H](NC(C)=O)C(O)O[C@@H]2CO)O[C@H](CO)[C@@H](O)[C@@H]1O` (stereo not given in full), for which the midpoint of inhibition in assay [3], the IC50, lay at 750 µM.

`CC(=O)N[C@@H]1[C@@H](O)[C@H](O[C@@H]2O[C@H](CO)[C@H](O)[C@H](O)[C@H]2O)[C@@H](CO)O[C@H]1NC(=O)CCCCCC(=O)N[C@@H]1O[C@H](CO)[C@@H](O[C@@H]2O[C@H](CO)[C@H](O)[C@H](O)[C@H]2O)[C@H](O)[C@H]1NC(C)=O` gave an IC50 in assay [5] of 47 µM.

For the compound `CC(=O)N[C@@H]1[C@@H](O)[C@H](O[C@@H]2O[C@H](CO)[C@@H](O)[C@H](O)[C@H]2NC(C)=O)[C@@H](CO)O[C@H]1NC(=O)CN(CCOCCOCCN(CC(=O)N[C@@H]1O[C@H](CO)[C@@H](O[C@@H]2O[C@H](CO)[C@@H](O)[C@H](O)[C@H]2NC(C)=O)[C@H](O)[C@H]1NC(C)=O)CC(=O)N[C@@H]1O[C@H](CO)[C@@H](O[C@@H]2O[C@H](CO)[C@@H](O)[C@H](O)[C@H]2NC(C)=O)[C@H](O)[C@H]1NC(C)=O)CC(=O)N[C@@H]1O[C@H](CO)[C@@H](O[C@@H]2O[C@H](CO)[C@@H](O)[C@H](O)[C@H]2NC(C)=O)[C@H](O)[C@H]1NC(C)=O`, in the assay on Triticum aestivum [1], the Activity entry is “Dose-dependent effect”. For the same compound, the outcome in the assay with Erythrina variegata [2] was inactive. This compound also returned an IC50 in assay [3] of 5.86 µM. Also, the outcome in the assay on Triticum aestivum [4] was Active.

With `CC(=O)N[C@@H]1[C@@H](O)[C@H](O[C@@H]2O[C@H](CO)[C@H](O)[C@H](O)[C@H]2O)[C@@H](CO)O[C@H]1NC(=O)CCCCCNC(=O)CN(CCOCCOCCN(CC(=O)NCCCCCC(=O)N[C@@H]1O[C@H](CO)[C@@H](O[C@@H]2O[C@H](CO)[C@H](O)[C@H](O)[C@H]2O)[C@H](O)[C@H]1NC(C)=O)CC(=O)NCCCCCC(=O)N[C@@H]1O[C@H](CO)[C@@H](O[C@@H]2O[C@H](CO)[C@H](O)[C@H](O)[C@H]2O)[C@H](O)[C@H]1NC(C)=O)CC(=O)NCCCCCC(=O)N[C@@H]1O[C@H](CO)[C@@H](O[C@@H]2O[C@H](CO)[C@H](O)[C@H](O)[C@H]2O)[C@H](O)[C@H]1NC(C)=O`, the result in the assay with Erythrina variegata [2] and in the assay with Erythrina variegata [6] was Active. Besides, inhibition in assay [5] was half-maximal at 5.9 µM (IC50). The result in the assay with Triticum aestivum [4] and with Triticum aestivum [7] was inactive.

Regarding `CC(=O)N[C@@H]1[C@@H](O)[C@H](O[C@@H]2O[C@H](CO)[C@H](O)[C@H](O)[C@H]2O)[C@@H](CO)O[C@H]1O`, inhibition in assay [5] was half-maximal at 94 µM (IC50).

In the case of `CC(=O)N[C@@H]1[C@@H](O)[C@H](O[C@@H]2O[C@H](CO)[C@H](O)[C@H](O)[C@H]2O)[C@@H](CO)O[C@H]1NC(=O)CN(CCOCCOCCN(CC(=O)N[C@@H]1O[C@H](CO)[C@@H](O[C@@H]2O[C@H](CO)[C@H](O)[C@H](O)[C@H]2O)[C@H](O)[C@H]1NC(C)=O)CC(=O)N[C@@H]1O[C@H](CO)[C@@H](O[C@@H]2O[C@H](CO)[C@H](O)[C@H](O)[C@H]2O)[C@H](O)[C@H]1NC(C)=O)CC(=O)N[C@@H]1O[C@H](CO)[C@@H](O[C@@H]2O[C@H](CO)[C@H](O)[C@H](O)[C@H]2O)[C@H](O)[C@H]1NC(C)=O`, the outcome in the assay on Erythrina variegata [2] and with Erythrina variegata [6] was Active. Moreover, the results for the IC50 in assay [5] and in assay [3] were 1.2 µM and above 4000 µM, respectively. Also, the result in the assay on Triticum aestivum [4] and in the assay on Triticum aestivum [7] was inactive.

For `CC(=O)N[C@@H]1[C@@H](O)[C@H](O)[C@@H](CO)O[C@H]1NC(=O)CCCCCNC(=O)CN(CCOCCOCCN(CC(=O)NCCCCCC(=O)N[C@@H]1O[C@H](CO)[C@@H](O)[C@H](O)[C@H]1NC(C)=O)CC(=O)NCCCCCC(=O)N[C@@H]1O[C@H](CO)[C@@H](O)[C@H](O)[C@H]1NC(C)=O)CC(=O)NCCCCCC(=O)N[C@@H]1O[C@H](CO)[C@@H](O)[C@H](O)[C@H]1NC(C)=O`, in the assay with Triticum aestivum [1], the Activity result was “Dose-dependent effect”. Further, the result in the assay with Erythrina variegata [2] was inactive. The compound also displayed an IC50 in assay [3] of 46.9 µM. For the same compound, in the assay on Triticum aestivum [4], the result was Active.
